IC50 data for 84 molecules are collected here from PubChem BioAssay AID2305 (GlaxoSmithKline (GSK), 2010).

Structures are written as SMILES.

The subject of the test is P. falciparum 3D7 growth, pLDH absorbance. Put plainly: blood-stage malaria parasite growth potency – strain 3D7, dose response (AID 2305).
In turn, `CC(C)(C)c1nn(-c2ccccc2)c2[nH]c(=O)c(CNCCc3ccccc3)cc12` returned an IC50 of 870 nM.
In turn, `O=C(Nc1cccc(-c2nn3ccccc3c2-c2ccnc(Nc3ccc(C(=O)N4CCOCC4)cc3)n2)c1)c1c(F)cccc1F` displayed a half-inhibitory concentration (IC50) of 380 nM.
With `O=C(CNCC1CCCCC1)Nc1cc(C(F)(F)F)ccc1Cl`, the concentration for half-maximal inhibition (IC50) is 980 nM.
For `COc1ccc2nccc([C@@H](O)CN3CCC(NCc4nc5ccccc5[nH]4)CC3)c2c1`, the IC50 came to 1070 nM.
For `Cc1cc(N2CCC(C)CC2)nc2cc(O)ccc12`, the half-maximal inhibitory concentration (IC50) is 1180 nM.
`CNCCCn1c(N(C)C)nc2cc(-n3cnc4cc(-c5ccc(Cl)cc5)sc4c3=O)ccc21` had a 50% inhibitory concentration (IC50) of 1140 nM.
Next, `CN1CCC(NCc2ccc(-c3ccc(Cl)cc3)cc2)CC1`: 750 nM; `CCn1c(-c2nonc2N)nc2c(Cl)ncc(O[C@H](CCN)c3ccccc3F)c21`: 1460 nM; `O=C(Nc1ccc([N+](=O)[O-])cc1Br)c1cc2ccccc2nc1Cl`: 190 nM.
Next, `CN(C)CC1CCCN1Cc1ccccc1-c1cnn(C)c(=O)c1Oc1cccc(C#N)c1` (centres undefined): 1340 nM.
Next, `O=C(NCCCCN1CCC(c2ccc(C(F)(F)F)cc2C(F)(F)F)CC1)c1ccc(NC(=O)c2ccc(Cl)cc2)cc1`: 610 nM; `COc1ccc2nccc([C@@H](O)CN3CCC(NCc4ccc5sc(=O)[nH]c5c4)CC3)c2c1`: 290 nM; `CC(C)c1ccc(OCC(O)CN(CCN2CCOCC2)C(=O)Nc2ccc(Br)cc2)cc1` (centres undefined): 720 nM.
The molecule `CN(C)C(=O)O[C@@H]1CN[C@H](C#Cc2cc3ncnc(Nc4ccc5c(cnn5Cc5cccc(F)c5)c4)c3s2)C1` displayed an IC50 of 760 nM.
Next, `COc1ccc(CN(C)CCCOc2ccc(NC(=O)c3cccc4c(=O)c5cccc(F)c5[nH]c34)cc2)cc1OC`: 640 nM; `Cc1cc2c(/C=C/C(=O)NC3CCC(CCN4CCc5ccc(C#N)cc5CC4)CC3)cccc2[nH]1` (centres undefined): 840 nM; `O=C(O)c1ccc2nc(-c3ccc(-c4ccccc4)cc3)n(C3CCN(Cc4ccc(-c5ncc[nH]5)cc4)CC3)c2c1`: 1730 nM.
Take `Cc1noc(C)c1-c1cccc(CNCc2ccc(-c3cccc(-c4nc5ccc(F)cc5[nH]4)c3)cc2)c1`: the concentration for half-maximal inhibition (IC50) worked out at 550 nM.
For `CC(O)C1CCCCN1C(=O)c1ccc(-c2ccc(-c3nc4ccc(F)cc4[nH]3)cc2)cc1` (centres undefined) the value was 440 nM; for `O=C(NCCCCN1CCC(c2ccc3c(c2OCC2CC2)CCCC3)CC1)c1ccc(NC(=O)c2ccc(Cl)cc2)cc1`, 680 nM; for `COc1cccc(NC(=O)Nc2cc(C)nc3ccccc23)c1`, 720 nM.
`CC(Cc1ccc(OCc2ccc(CCN(C)C)cc2)cc1)NCCc1cccc(Cl)c1` (centres undefined): the IC50 stood at 770 nM.
For `CC(C)OC(=O)c1ccc(NC(=O)N[C@@H](Cc2ccc(O)cc2)C(=O)NC2C[C@H]3CC[C@@H](C2)N3Cc2ccccc2)cc1` (some centres undefined) the value was 1080 nM; for `CC(=O)Nc1ccc(OCCN(CC(C)(C)C)c2ccc(C#N)c(C(F)(F)F)c2)c(Cl)c1`, 490 nM.
For `N#Cc1ccc(Sc2nnc(-c3ccccc3Cl)n2CC2CCCCC2)cc1[N+](=O)[O-]` the value was 1160 nM; for `Cc1cccc2[nH]c(-c3ccc(-c4ccc(NC(=O)C(C)CN5CCN(C)CC5)cc4)s3)nc12` (centres undefined), 730 nM.
For `CC(C)CCNC(=O)C1Cc2c([nH]c3ccc(Br)cc23)C2(CCN(Cc3ccccc3)CC2)N1` (centres undefined) the value was 820 nM; for `Cc1nc(-c2cccc(C(=O)NC3CCC(CCN4CCc5ccc(-c6cccnc6)cc5CC4)CC3)c2)no1` (centres undefined), 760 nM.
Take `Nc1cccc(CNCc2ccc(-c3cccc(-c4nc5ccc(C(F)(F)F)cc5[nH]4)c3)cc2)c1`: the half-inhibitory concentration (IC50) turned out to be 170 nM.
For `COc1ccc(NC2=C(c3ccccc3)C(=O)c3ccccc32)cn1` the value was 710 nM; for `COc1ccc(CN(C)CCCc2ccc(NC(=O)c3cccc4c(=O)c5ccccc5[nH]c34)cc2)cc1OC`, 1370 nM.
In turn, `C[C@H](NC(=O)c1c(CN2CCC(NC(=O)CC(C)(C)C)CC2)c(-c2cccs2)nc2ccccc12)C1CCCCC1` returned an IC50 of 950 nM.
On to `CCCCOP(=O)(OCCCC)C(=Cc1ccc(O)c2ccccc12)P(=O)(OCCCC)OCCCC`, for which the IC50 turned out to be 1070 nM.
As to `CC(=O)N1Cc2ccccc2C1=O`, the IC50 amounted to 520 nM.
Consider `O=C(Nc1ccc(Cl)cc1)Nc1ccc(-c2csc(-c3nc4ccccc4[nH]3)c2)cc1`, for which the IC50 came to 800 nM.
For `O=C(NCc1ccc(F)cc1)Nc1cccc(-c2ccc(-c3nc4ccccc4[nH]3)cc2)c1` the value was 170 nM; for `Cc1cc(NCCc2ccccc2)nc(NC(=NCC(=O)OC(C)(C)C)Nc2ccc(C(F)(F)F)cc2)n1`, 330 nM.
For `Cc1cc(C(=O)CN2C(=O)NC(C)(c3ccc4ccccc4c3)C2=O)c(C)n1Cc1ccco1` (centres undefined), the half-inhibitory concentration (IC50) came out at 660 nM.
For `COc1ccc(NC(=O)[C@H](CC(C)C)Nc2cc(C)nc(NCCc3ccccc3)n2)cc1` the value was 890 nM.
For `N#Cc1ccc2c(c1)CCN(CCC1CCC(NC(=O)/C=C/c3cccc4cc[nH]c34)CC1)CC2` (centres undefined) the value was 1090 nM; for `O=C(NC1CCN(CCCc2ccccc2)CC1)c1ccc(-c2cccc(C(F)(F)F)c2)s1`, 890 nM; for `O=C(NCC1CC1)C1CCN(C(c2ccc(Cl)cc2)c2ccc(Cl)cc2)CC1`, 190 nM.
`CC(C)(C)OC(=O)N[C@@H](Cc1ccccc1)C(=O)Nc1cccc(-c2cccc(NC(=O)[C@H](Cc3ccccc3)NC(=O)OC(C)(C)C)c2)c1` had an IC50 of 610 nM.
For `O=S(=O)(/C=C/c1ccccc1)N(Cc1ccc(-c2ccc(CNCCc3ccccn3)cc2)cc1)CC1CCCCN1` (centres undefined) the value was 740 nM.
For `CC(C)c1ccc(NC(=O)c2ccc(C(=O)NC3CCN(Cc4ccccc4)CC3)cc2)cc1` the value was 980 nM; for `C=CC[C@H](C[C@H](O)[C@H](Cc1ccccc1)NC(=O)c1nn(-c2ccccc2)nc1C)C(=O)NC1CCCCC1`, 920 nM; for `CC[C@H]1CN2CC[C@H]1C[C@@H]2[C@@H](OC(=O)c1ccc(Cl)cc1)c1ccnc2ccc(OC)cc12`, 920 nM.
Next, `CCCn1c(SCC(=O)Nc2cc(Cl)ccc2Cl)n[nH]c1=O`: 1000 nM; `CC(Cc1ccc(NC(=O)c2ccc(CNCCc3ccccc3)cc2)cc1)NCCc1cccc(Cl)c1` (centres undefined): 350 nM.
Take `O=C(/C=C/c1ccc(Cl)c(Cl)c1)NC1CCC(CN2CCC(c3nc4ccc(O)cc4[nH]3)CC2)CC1` (centres undefined): the IC50 turned out to be 240 nM.
`Cc1[nH]c2ccccc2c1C1=CCN(CCCCC23CCCc4cccc(c42)NC3=O)CC1` (centres undefined): the half-maximal inhibitory concentration (IC50) turned out to be 230 nM.
Next, `COc1cc2nc(N(C)C)nc(Nc3ccc(OCc4ccccc4)cc3)c2cc1OC`: 70 nM; `COc1ccc(CC(C)NCC(O)c2cccc(Br)c2)cc1` (centres undefined): 960 nM.
For `N=C(N)c1ccc(C=CC(=O)NCC(O)CNC(=O)C=Cc2ccc(C(=N)N)cc2)cc1` (centres undefined) the value was 30 nM.
The molecule `CN1CCCN(c2ccnc3cc4c(cc23)N(C(=O)c2ccc(Cl)c(Cl)c2)CC4)CC1` gave an IC50 of 870 nM.
`O=c1cc(NCCCNCc2cccc(SC(F)(F)F)c2)[nH]c2ccccc12` registered an IC50 of 720 nM.
For `O=C(Nc1cccc(CN2CCCN(Cc3cccc(F)c3)CC2)c1)c1ccc(Cl)c(Cl)c1` the value was 920 nM.
Next, `N#Cc1c(-c2ccccc2)cn2c1[nH]c(=O)c1ccccc12`: 110 nM.
In turn, `O=C(C1CC1)N1c2ccccc2CCc2ccccc21` showed an IC50 of 830 nM.
Molecule `CCOc1ccc2nc(N(CCCn3ccnc3)C(=O)C=Cc3cccs3)sc2c1` registered an IC50 of 780 nM.
For `CC(C)(CNCc1ccc(OC(F)(F)F)cc1)c1nc(-c2ccc(Cl)c(O)c2)c(-c2ccncc2)[nH]1` the value was 550 nM; for `NC(N)=Nc1ccc(C(=O)O)c(O)c1`, 1030 nM; for `COc1cc2c(cc1OC)C(C)(C)CN1Cc3c(c(CO)c(OC)c(OC)c3OC)CC21` (centres undefined), 780 nM.
For `COCCOc1ccc(C(F)(F)F)cc1NC(=O)Cc1c(F)cccc1Cl` the value was 1000 nM.
Next, `O=[N+]([O-])c1ccc(Oc2ccccc2CNCC2CCN(CC3CCCCC3)CC2)cc1`: 900 nM; `CC(C)CCN(Cc1cncn1Cc1cccc(C(F)(F)F)c1)C(=O)c1ccccc1C#N`: 610 nM.
`Nc1c2c(nc3ccc(NC(=O)CCCc4ccccc4)cc13)CCCC2` displayed an IC50 of 430 nM.
For `O=C(c1ccc(Cl)cc1)N1CCOC(CCN2CCC(c3ccccc3)CC2)(c2ccc(Cl)c(Cl)c2)C1` (centres undefined) the value was 240 nM; for `N#Cc1cccc(C(=O)Nc2ccc(-c3cccc(CN4CCC(O)CC4)c3)cc2)c1`, 1000 nM; for `COc1ccc2nccc(NN=Cc3ccncc3)c2c1`, 580 nM.
Regarding `COC(=O)c1ccc2c(c1)nc(Nc1cccc(F)c1)n2CC(O)c1ccccn1` (centres undefined), the IC50 came out at 730 nM.
Next, `CN1CCN(CC(=O)Nc2cccc(-c3cccc(-c4nc5ccc(F)cc5[nH]4)c3)c2)CC1`: 740 nM.
In the case of `COc1ccc(-c2nc(NC(=O)Cc3cccc(OC)c3)sc2C)cc1`, the IC50 stood at 240 nM.
Next, `CC(=O)Nc1ccc2[nH]cc(C3CCN(CC4CCN(C(=O)/C=C/c5ccc(Cl)c(Cl)c5)CC4)CC3)c2n1`: 160 nM; `Cc1noc(-c2ccc3c(c2)CCN(CCC2CCC(NC(=O)/C=C/c4cccc(Cl)c4)CC2)CC3)n1` (centres undefined): 1000 nM.
In turn, `O=C(Nc1ccc(Cl)cc1C(=O)Nc1ccncc1)c1ccc(Cl)cc1Cl` came in with an IC50 of 610 nM.
For the molecule `COc1ccccc1/C=C/C(=O)NC1CCC(CCN2CCc3ccc(-c4cc(C)no4)cc3CC2)CC1` (centres undefined), the IC50 was found to be 960 nM.
Turning to `Cc1c(C)c2c(c(C)c1O)CC[C@](C)(C(=O)N1CCC(CCN3CCC(c4c[nH]c5ccccc45)CC3)CC1)O2`, the IC50 was determined as 830 nM.
For `Oc1ccc2nc(NCCCc3ccccc3)nc(NCCc3ccccc3)c2c1` the value was 290 nM.
On to `O=C(Nc1ccc(-c2ccccc2)cc1)Nc1ccc2c(c1)CCNCC2`, for which the IC50 came out at 350 nM.
Regarding `CC[C@H](NC(=O)c1c(CCCN2CCN(c3ccccc3)CC2)c(-c2ccccc2)nc2cc(O)ccc12)c1ccccc1`, the half-maximal inhibitory concentration (IC50) was determined as 780 nM.
`CCN(CC)C(=NCCCCCCN=C(/N=C(\N)Nc1ccc(Cl)c(Cl)c1)N(CC)CC)/N=C(\N)Nc1ccc(Cl)c(Cl)c1` had an IC50 of 760 nM.
Turning to `Cc1ccccc1C1CCN(C2CCC(NC(=O)/C=C/c3ccc(C#N)cc3)CC2)CC1` (centres undefined), the IC50 is 1170 nM.
With `CCNc1cc(C(=O)N[C@@H](Cc2ccccc2)[C@H](O)CNCc2ccc3c(c2)OCCO3)cc(N2CCCCS2(=O)=O)c1`, the half-inhibitory concentration (IC50) is 1350 nM.

The IC50 is the concentration that gives 50% inhibition. Lower therefore signals greater potency.
